The target of one assay is T1, α1 -adrenergic receptors (Rattus norvegicus, UniProt P15823).
T1 construct: from tissue; host or cells: rat liver
T1 sequence (P15823 1-515): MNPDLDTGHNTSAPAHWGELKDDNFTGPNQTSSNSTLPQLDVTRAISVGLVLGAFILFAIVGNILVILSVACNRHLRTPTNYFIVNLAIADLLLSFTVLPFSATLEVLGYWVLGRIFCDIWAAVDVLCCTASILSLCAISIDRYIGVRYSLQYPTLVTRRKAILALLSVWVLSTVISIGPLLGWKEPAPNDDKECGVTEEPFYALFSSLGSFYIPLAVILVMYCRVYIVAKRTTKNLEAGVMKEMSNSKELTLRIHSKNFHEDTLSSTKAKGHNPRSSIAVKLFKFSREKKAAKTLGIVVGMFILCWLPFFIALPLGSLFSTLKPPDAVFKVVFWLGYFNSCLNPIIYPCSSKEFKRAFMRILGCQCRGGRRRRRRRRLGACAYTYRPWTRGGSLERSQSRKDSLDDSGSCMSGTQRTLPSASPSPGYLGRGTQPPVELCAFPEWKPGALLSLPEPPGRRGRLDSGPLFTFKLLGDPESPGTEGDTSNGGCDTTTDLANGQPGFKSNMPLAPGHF
In words: radioligand binding, [3H] prazosin displacement in rat liver. Particulars: read-out: KIα1 (dissociation constant).

A further assay addresses α2 -adrenergic receptors. It counts as binding, rat. The conditions noted are these: for Ki: rat brain cortex, [3H] rauwolscine, read-out: KIα2 (dissociation constant); for KIα1/KIα2: selectivity ratio, rat liver α1 vs rat brain cortex α2.
A further assay concerns α-adrenergic receptor. In words: isolated rabbit aorta contraction, α-adrenergic receptor agonist activity. Format: cell-based. Particulars: isolated rabbit aorta strip. How it is done: Female rabbits, weighing 2 to 5 kg., are sacrificed by cervical dislocation. The thoracic cavity is immediately opened and the descending aorta is removed and placed in a petrie dish containing an aqueous buffer solution (Krebs buffer) of 119 mM NaCl, 25 mM […], 4.7 mM KCl, 1.5 mM MgSO4, 1.2 mM KH2 PO4, 2.5 mM CaCl2, 11 mM glucose, 0.03 mM EDTA and 0.005 mM sodium ascorbate, adjusted to a pH of 7.4. The buffer solution is continuously aerated with a mixture of 95% O2 and 5% CO2 gases. The aorta is placed on cylindrical sticks and cleaned of excess fat and connective tissue, then cut into 2 tissue segments approximately 20 mm in length. Each segment of aorta is then spiraled in strips 3.5 mm wide by turning the stick as a scapel is applied, while leaving a section of 2-3 mm at each end of the aorta section intact. The spiraled tissue is mounted in an aerated (as above) tissue bath of 10 ml. of Kreb's buffer and is attached to a Grass force transducer with an initial applied tension of 2 grams. The tissue is allowed to equilibrate in the tissue bath at a temperature of 37°±0.5° C. until the tension on the force transducer stabilizes at 2 grams.
The tissue is washed with Krebs buffer until it relaxes to baseline tension.

The test system of assay [1] is spontaneously hypertensive rat. In words: arterial blood pressure and heart rate in the spontaneously hypertensive rat (tail cuff). It counts as in vivo. How it is done: Two groups of Okamoto rats, which develop hypertension spontaneously when reaching young adulthood, are deprived of food for a period of 16 hours and are placed in semirestraining wire mesh cylinders maintained at a constant temperature of 36° C. An occluding cuff, operatively connected to a programmed sphygmomanometer, is placed over the tail of each rat of the group and retained near the tail base. […] A photocell is placed distal to the cuff to detect pulses resulting from the forward motion of blood flow with each heartbeat of the rat. As the pressure in the cuff increases, measurable pulses disappear at the point where the cuff pressure equals the arterial blood pressure. Measurable pluses reappear during deflation at approximately the same pressure, and arterial blood pressure is thereby established by cuff pressure at the point of pulse appearance. The heart rate is determined from the arterial pulse wave. Doses of 30 or 100 mg./kg. of the preferred compound of Example 6 were administered orally to each rat of the test groups and five interference-free signals were recorded on a Model 7 Grass polygraph for each rat at various measurement periods following administration.

Here are results for five compounds from patent US4505932A, “Method of producing α2 -adrenergic receptor agonist activity” (Abbott Laboratories, priority 1984, dated 1985).

Counter-ions that a name gives are not always drawn.

Take `NCC1CCc2c1ccc(O)c2O` (stereo not drawn) [B]: at α1 -adrenergic receptors, the Ki was 8620 nM. Also, at α2 -adrenergic receptors, the Ki turned out to be 15 nM and the KIα1/KIα2 is given as 575.
As to `Clc1cccc(Cl)c1N=C1NCCN1` [Clonidine, clonidine, reference compound], the Ki on α2 -adrenergic receptors stood at 34 nM.
For `CNC[C@H](O)c1ccc(O)c(O)c1` [Epinephrine, epinephrine, reference compound], the Ki on α2 -adrenergic receptors is 53 nM.
With `CN(C)CC1CCc2c1ccc(O)c2O` (stereo not drawn) [Example 6, 1-N,N-Dimethylaminomethyl-4,5-dihydroxy indane hydrobromide], the “agonist character (intrinsic activity vs norepinephrine; >75% = full agonist)” value with α-adrenergic receptor is reported as “full agonist”. In addition, the EC50 in the assay on α-adrenergic receptor (contraction, read-out: ED50 (concentration producing half maximum response) in aorta strip) was 1600 nM. Besides, the Ki at α1 -adrenergic receptors is 6900 nM. Further, on α2 -adrenergic receptors, the Ki turned out to be 25 nM and the KIα1/KIα2 came to 276. In addition, the arterial blood pressure result in assay [1] (30 or 100 mg./kg. orally, Okamoto rats) is reported as “decrease the arterial blood pressure”. Besides, the heart rate result in assay [1] (spontaneously hypertensive rat, oral) is recorded as “decrease”.
On to `CNCC1CCc2c1ccc(O)c2O` (stereo not drawn) [Example 10, 1-N-Methylaminomethyl-4,5-dihydroxy indane hydrobromide], for which, at α1 -adrenergic receptors, the Ki is 1690 nM. Also, at α2 -adrenergic receptors, the Ki is 6 nM and the KIα1/KIα2 is 282.
